Consider 2 molecules from patent publication US20150087723A1, “MICROBIAL COMPOSITION” (Rohm and Haas Company, priority 2011, published 2015).

The test system of assay [1] is Escherichia coli (E. coli—ATCC #10536). In words: Automated assessment of efficacy in model surfactant base (2.85% sodium cocoyl glycinate + 1.85% sodium lauroamphoacetate, pH 10), 15 seconds exposure, OD450/OD590 readout. The following applies: for MBC: Escherichia coli, ATCC10536, 15 s, in 2.85% sodium cocoyl glycinate + 1.85% sodium lauroamphoacetate solution at pH 10, E. coli, read-out: MBC (% w/v); for No. of replicates showing growth (out of 4) / Δ OD 450 nm = OD450 (time = 16 hours) - OD450 (time zero), Mean / Δ OD 590 nm OD590 (time = 16 hours) - OD590 (time zero), Mean: model surfactant solution. It counts as cell-based.

Assay [2] deals with Staphylococcus aureus (10788 strain). In words: Antimicrobial efficacy in water, 15 seconds contact, mean bacterial survival NMBS by colony count. It counts as cell-based. The following applies: for NMBS: alone, S. Aureus, 15 seconds contact; for MBC (minimum biocidal concentration): single component, against S. Aureus, in water. On the procedure: Selected materials were also tested against a representative Gram positive Staphylococcus aureus.
This suspension was separated into equal volumes and centrifuged at 4000 rpm for 15 minutes. Following centrifugation the pellet was re-suspended in saline to give a final concentration of 0.35 OD620 equivalent to about 10^8 cells per millilitre for this particular organism. Here, OD620 indicates the absorbance of a sample in a cuvette of 1.0 cm path length at a wavelength of 620 nm. This bacterial stock was used for assaying against antimicrobial actives (in triplicate).
The following assay describes the testing of 8 materials using 6 dilutions across half of a 96-well micro litre plate (MTP). Using this approach it is possible to assay 16 actives (without replicates) with, one full dilution plate, replicating this set up in two halves of the plate columns, 1-6 and 7-12.
IM solutions of the test actives were prepared in dimethylsulphoxide (DMSO).
This MTP was labeled as the “Screening plate”.
In another MTP, labeled as the “Dilution plate”, 270 μl of D/E neutralising solution from DIFCO Composition was added to column 1. The composition of the neutralising solution was as follows: pancreatic digest of casein, 5.0 g/L; Yeast Extract, 2.5 g/L; Dextrose, 10 g/L, sodium thioglycollate, 1.0 g/L, sodium thiosulphate, 6.0 g/L; sodium bisulphite, 2.5 g/L; Polysorbate 80, 5.0 g/L; lecithin 7.0 g/L; bromocresol purple, 0.02 g/L with a pH is the range 7.6±0.2.
270 μl of tryptone diluent solution was added to all the remaining wells of the Dilution MTP (columns 2-6).
Bacterial stock (30 μl) was then added to the prepared 270 μl of the solution of actives in the Screening Plate and mixed, using a multichannel pipette with 8 tips to aspirate and dispense the same volume of bacterial stock in parallel to 8 wells in rows A-H. After a contact time of 15 seconds, the mixtures were quenched by transferring 30 μl volumes of the mixtures into the 270 μl D/E neutralising solution in the prepared dilution plate, using aspiration to mix. After exactly 5 minutes in the D/E neutralising solution, 30 μl volumes were transferred from column 1 to column 2 of the Dilution MTP and mixed, before transferring further 30 μl volumes from column 2 into column 3. This process was repeated serially diluting the bacteria across the plate to column 6.
30 μl volumes from each well in the Dilution MTP were transferred onto pre-labeled segment of Tryptone Soya Agar (TSA) plates starting from the lowest bacterial concentration (highest dilution, column 6) to the highest bacterial concentration (column 1). The TSA plates were allowed to stand for ca. 2 hours so that the 30 μl inocula spots could dry and the plates were then inverted and incubated overnight at 37° C. before enumerating the bacterial colonies at the labeled dilutions to determine the effects of the actives on bacterial growth.
Mean bacterial survival numbers NMBS (expressed in Log CFU/ml) are obtained by first determining the segment of the TSA plate where the number of bacterial colonies is countable. From the colony number in this segment, NMBS is calculated by the formula: […]
Here, Ncol is the colony count, and DF is the dilution factor taken from the MTP-well corresponding to the TSA plate segment (i.e. DF may range from 1 for the quench, to 6 for the highest dilution). The factor 100/3 is a conversion factor from the volume of the inocula spot to one millilitre.
Every assay test was performed in triplicate.
Thus, a value of NMBS of about 7 corresponds to a count of about 3 colonies from the fifth dilution well, i.e. with DF=5. Such a count of about 7 is generally observed when bacteria are exposed to non-biocidal materials. In case no surviving colonies are observed in any segment of the TSA plate, this is interpreted as complete kill and a value of NMBS=0 is reported.
S. aureus Bacterial stock was prepared as shown below and the antibacterial efficacy of the active was carried out as explained earlier for E. Coli.

As to `CCCc1ccccc1O` [2-n-propylphenol], the MBC in assay [1] stood at 1750 µg/mL. Besides, the “No. of replicates showing growth (out of 4)” value in assay [1] (component alone at 0.125% w/v) is recorded as 4 out of 4; in assay [1] (component alone at 0.175% w/v), 0 out of 4; in assay [1] (component alone at […] w/v), 4 out of 4. Besides, the “Δ OD 450 nm = OD450 (time = 16 hours) - OD450 (time zero), Mean” value in assay [1] (component alone at 0.125% w/v) is −1.34; in assay [1] (component alone at 0.175% w/v), −0.10; in assay [1] (component alone at […] w/v), −1.43. The “Δ OD 590 nm OD590 (time = 16 hours) - OD590 (time zero), Mean” value in assay [1] (component alone at 0.125% w/v) worked out at 0.54; in assay [1] (component alone at 0.175% w/v) it was 0.09; in assay [1] (component alone at […] w/v) it was 0.44. For the same molecule, the NMBS in assay [2] (0.05% w/v) is given as 7.40 log CFU/ml; in assay [2] (0.125% w/v), 7.06 log CFU/ml; in assay [2] (0.5% w/v) it was 0 log CFU/ml; in assay [2] ([…] w/v), 4.12 log CFU/ml. In addition, the “MBC (minimum biocidal concentration)” value in assay [2] worked out at 0.5 % w/v.
In the case of `CC(C)=CCC/C(C)=C/CO` [(E)-3,7-dimethylocta-2,6-dien-1-ol], the MBC in assay [1] is over 5000 µg/mL. In addition, the “No. of replicates showing growth (out of 4)” value in assay [1] (component alone at 0.2% w/v), in assay [1] (component alone at 0.3% w/v), in assay [1] (component alone at 0.4% w/v), in assay [1] (component alone at 0.5% w/v) and in assay [1] (component alone at […] w/v) was 4 out of 4 each time. Also, the “Δ OD 450 nm = OD450 (time = 16 hours) - OD450 (time zero), Mean” value in assay [1] (component alone at 0.2% w/v) is −0.54; in assay [1] (component alone at 0.3% w/v), −0.51; in assay [1] (component alone at 0.4% w/v), −0.49; in assay [1] (component alone at 0.5% w/v), −0.45; in assay [1] (component alone at […] w/v), −0.53. In addition, the “Δ OD 590 nm OD590 (time = 16 hours) - OD590 (time zero), Mean” value is on record as 0.60 in assay [1] (component alone at 0.2% w/v); 0.59 in assay [1] (component alone at 0.3% w/v); 0.60 in assay [1] (component alone at 0.4% w/v); 0.62 in assay [1] (component alone at 0.5% w/v); 0.58 in assay [1] (component alone at […] w/v). The “Terpene alcohol MBC %(w/v)” value in assay [1] (terpene alcohol alone, model surfactant, E. Coli) was 0.5 %(w/v). In addition, the NMBS is 7.43 log CFU/ml in assay [2] (0.5% w/v) and 7.18 log CFU/ml in assay [2] (1.0% w/v). Further, the “MBC (minimum biocidal concentration)” value in assay [2] is given as over 1.5 % w/v.
